Assay results taken from publication PMC7615656 (European journal of pharmacology, 2010).

Tests used:
[1] = biological target: recombinant rat α2β3γ2F77I receptors (Rattus norvegicus, UniProt P18508+P23576, F115I); test: Two-electrode voltage clamp of GABA-induced chloride currents in Xenopus oocytes; type: cell-based; conditions: for efficacy (% GABA EC3): α2β3γ2F77I, ns = not significant
[2] = biological target: recombinant rat α1β3γ2F77I receptors (Rattus norvegicus, UniProt P18508+P62813, F115I); test: as above; type: cell-based; conditions: for efficacy (% GABA EC3): α1β3γ2F77I, ns = not significant
[3] = biological target: recombinant rat α6β3γ2F77I receptors (Rattus norvegicus, UniProt P18508+P30191, F115I); test: as above; type: cell-based; conditions: ns = not significant
[4] = biological target: recombinant rat α5β3γ2F77I receptors (Rattus norvegicus, UniProt P18508+P19969, F115I); test: as above; type: cell-based; conditions: for efficacy (% GABA EC3): α5β3γ2F77I, ns = not significant
[5] = biological target: recombinant rat α3β3γ2 receptors (Rattus norvegicus, UniProt P18508+P20236); test: as above; type: cell-based; conditions: for efficacy (% GABA EC3): α3β3γ2, ns = not significant
[6] = biological target: recombinant rat α2β3γ2 receptors (Rattus norvegicus, UniProt P18508+P23576); test: as above; type: cell-based
[7] = biological target: recombinant rat α4β3γ2 receptors (Rattus norvegicus, UniProt P18508+P28471); test: as above; type: cell-based; conditions: for efficacy (% GABA EC3): α4β3γ2, ns = not significant
[8] = biological target: recombinant rat α5β3γ2 receptors (Rattus norvegicus, UniProt P18508+P19969); test: as above; type: cell-based; conditions: for efficacy (% GABA EC3): α5β3γ2, ns = not significant
[9] = biological target: recombinant rat α6β3γ2 receptors (Rattus norvegicus, UniProt P18508+P30191); test: as above; type: cell-based; conditions: for efficacy (% GABA EC3): α6β3γ2, ns = not significant
[10] = biological target: recombinant rat α3β3γ2F77I receptors (Rattus norvegicus, UniProt P18508+P20236, F115I); test: as above; type: cell-based; conditions: for efficacy (% GABA EC3): α3β3γ2F77I, ns = not significant
[11] = biological target: recombinant rat α4β3γ2F77I receptors (Rattus norvegicus, UniProt P18508+P28471, F115I); test: as above; type: cell-based; conditions: ns = not significant
[12] = tested on: GABAA receptors containing the γ2F77I mutation; test: Modulation of GABA EC3 in receptors containing the γ2F77I mutation; type: cell-based, rat; conditions: up to 100 nM
[13] = biological target: recombinant rat α1β3γ2 receptors (Rattus norvegicus, UniProt P18508+P62813); test: Two-electrode voltage clamp of GABA-induced chloride currents in Xenopus oocytes; type: cell-based; conditions: for efficacy (% GABA EC3): α1β3γ2, ns = not significant
[14] = 10 nM, α2β3γ2, ns = not significant
[15] = 100 nM, α2β3γ2, ns = not significant
[16] = read-out: efficacy (% GABA EC3)

recombinant rat α3β3γ2 receptors, sequence (P20236 29-493): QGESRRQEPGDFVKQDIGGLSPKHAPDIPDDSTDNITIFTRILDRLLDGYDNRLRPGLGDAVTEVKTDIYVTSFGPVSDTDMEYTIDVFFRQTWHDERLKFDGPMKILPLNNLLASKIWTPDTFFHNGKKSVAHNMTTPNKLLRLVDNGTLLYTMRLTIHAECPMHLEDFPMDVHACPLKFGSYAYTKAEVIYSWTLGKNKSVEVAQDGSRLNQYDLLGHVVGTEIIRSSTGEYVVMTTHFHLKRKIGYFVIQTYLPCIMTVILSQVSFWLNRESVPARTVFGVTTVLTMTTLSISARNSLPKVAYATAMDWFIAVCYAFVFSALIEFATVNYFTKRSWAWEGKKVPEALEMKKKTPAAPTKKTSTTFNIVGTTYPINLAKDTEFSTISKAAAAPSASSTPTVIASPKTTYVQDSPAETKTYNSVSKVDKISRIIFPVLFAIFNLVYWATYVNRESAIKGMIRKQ
recombinant rat α3β3γ2 receptors, sequence (P63079 26-473 partner): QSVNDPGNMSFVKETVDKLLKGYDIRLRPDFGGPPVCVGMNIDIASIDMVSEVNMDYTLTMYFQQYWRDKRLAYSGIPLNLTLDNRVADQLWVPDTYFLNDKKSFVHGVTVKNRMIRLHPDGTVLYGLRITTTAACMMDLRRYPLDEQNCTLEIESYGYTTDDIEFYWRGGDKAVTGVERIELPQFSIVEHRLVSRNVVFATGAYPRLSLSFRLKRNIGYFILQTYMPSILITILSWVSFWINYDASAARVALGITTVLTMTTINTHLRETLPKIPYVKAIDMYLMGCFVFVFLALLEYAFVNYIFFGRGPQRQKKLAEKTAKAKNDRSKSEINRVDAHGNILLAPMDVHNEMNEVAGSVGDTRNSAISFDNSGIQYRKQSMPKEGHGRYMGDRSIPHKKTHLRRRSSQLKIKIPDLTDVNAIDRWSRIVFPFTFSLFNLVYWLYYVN
recombinant rat α3β3γ2 receptors, sequence (P18508 39-466): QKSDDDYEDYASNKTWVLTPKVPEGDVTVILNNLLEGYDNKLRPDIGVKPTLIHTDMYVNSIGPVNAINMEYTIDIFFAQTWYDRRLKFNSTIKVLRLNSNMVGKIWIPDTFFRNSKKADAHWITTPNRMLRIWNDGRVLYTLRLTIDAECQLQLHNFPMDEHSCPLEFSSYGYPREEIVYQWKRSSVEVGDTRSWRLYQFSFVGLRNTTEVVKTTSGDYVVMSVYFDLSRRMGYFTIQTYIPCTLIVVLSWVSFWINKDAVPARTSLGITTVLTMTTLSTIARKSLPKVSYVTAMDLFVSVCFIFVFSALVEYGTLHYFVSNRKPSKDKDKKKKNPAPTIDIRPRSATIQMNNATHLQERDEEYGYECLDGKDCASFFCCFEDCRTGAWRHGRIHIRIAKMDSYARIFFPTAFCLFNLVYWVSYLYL
recombinant rat α3β3γ2F77I receptors, sequence (P20236 29-493): as the sequence (P20236 29-493) above
recombinant rat α3β3γ2F77I receptors, sequence (P63079 26-473 partner): as the sequence (P63079 26-473 partner) above
recombinant rat α3β3γ2F77I receptors, sequence (P18508 39-466 F115I): as the sequence (P18508 39-466) above, with F77I counted along it
recombinant rat α5β3γ2F77I receptors, sequence (P19969 32-464 limits assumed): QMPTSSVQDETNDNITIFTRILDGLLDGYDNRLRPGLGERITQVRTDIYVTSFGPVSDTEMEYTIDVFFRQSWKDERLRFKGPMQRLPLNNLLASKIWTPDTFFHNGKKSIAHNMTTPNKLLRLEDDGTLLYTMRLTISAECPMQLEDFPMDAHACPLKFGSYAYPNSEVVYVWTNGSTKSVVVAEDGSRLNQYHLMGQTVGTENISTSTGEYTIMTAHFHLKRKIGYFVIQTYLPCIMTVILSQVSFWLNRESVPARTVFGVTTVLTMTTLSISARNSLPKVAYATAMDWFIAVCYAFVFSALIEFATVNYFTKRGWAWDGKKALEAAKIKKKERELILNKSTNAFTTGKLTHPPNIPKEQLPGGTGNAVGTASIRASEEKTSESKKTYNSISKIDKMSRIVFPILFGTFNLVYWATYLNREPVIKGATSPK
recombinant rat α5β3γ2F77I receptors, sequence (P63079 26-473 partner): as the sequence (P63079 26-473 partner) above
recombinant rat α5β3γ2F77I receptors, sequence (P18508 39-466 F115I): as the sequence (P18508 39-466) above, with F77I counted along it

Question: How did the “efficacy (% GABA EC3)” value ([1]; 10 nM) turn out when CC(C)(C)OC(=O)c1ncn2c1[C@@H]1CCCN1C(=O)c1c(Br)cccc1-2 [Bretazenil, t-butyl(s)-8-bromo-11,12,13,13a-tetrahydro-9-oxo-9H-imidazo[1,5-a] pyrrolo[2,1-c][1,4]benzodiazepine-1-carboxylate] was run?
Answer: ns

Question: What about the “efficacy (% GABA EC3)” value ([1]; 1 μM) of the same compound?
Answer: 125 ± 3 % GABA EC3

Question: And the “efficacy (% GABA EC3)” value ([1]; 10 μM)?
Answer: 179 ± 8 % GABA EC3

Question: And the “efficacy (% GABA EC3)” value ([2]; 10 nM)?
Answer: ns

Question: And the “efficacy (% GABA EC3)” value ([2]; 100 nM)?
Answer: 120 ± 6 % GABA EC3

Question: What about the “efficacy (% GABA EC3)” value ([2]; 1 μM) of the same compound?
Answer: 149 ± 12 % GABA EC3

Question: And the “efficacy (% GABA EC3)” value ([2]; 10 μM)?
Answer: 164 ± 21 % GABA EC3

Question: What about the “efficacy (% GABA EC3)” value ([3]; 10 nM) of the same compound?
Answer: ns

Question: And the “efficacy (% GABA EC3)” value ([3]; 100 nM)?
Answer: ns

Question: And the “efficacy (% GABA EC3)” value ([3]; 1 μM)?
Answer: ns

Question: What about the “efficacy (% GABA EC3)” value ([3]; 10 μM) of the same compound?
Answer: ns

Question: What about the EC50 [4] of the same compound?
Answer: > 748 nM

Question: And the “efficacy (% GABA EC3)” value ([4]; 10 nM)?
Answer: ns

Question: And the “efficacy (% GABA EC3)” value ([4]; 100 nM)?
Answer: 124 ± 3 % GABA EC3

Question: And the “efficacy (% GABA EC3)” value ([4]; 1 μM)?
Answer: 193 ± 8 % GABA EC3

Question: What about the “efficacy (% GABA EC3)” value ([4]; 10 μM) of the same compound?
Answer: 249 ± 11 % GABA EC3

Question: What about the EC50 [5] of the same compound?
Answer: 15 ± 2 nM

Question: What about the “efficacy (% GABA EC3)” value ([5]; 10 nM) of the same compound?
Answer: 154 ± 6 % GABA EC3

Question: And the “efficacy (% GABA EC3)” value ([5]; 100 nM)?
Answer: 213 ± 11 % GABA EC3

Question: And the “efficacy (% GABA EC3)” value ([5]; 1 μM)?
Answer: 224 ± 14 % GABA EC3

Question: And the “efficacy (% GABA EC3)” value ([5]; 10 μM)?
Answer: 234 ± 17 % GABA EC3

Question: And the EC50 [6]?
Answer: 7 ± 1 nM

Question: And the “efficacy (% GABA EC3)” value [6, 14]?
Answer: 119 ± 4 % GABA EC3

Question: And the “efficacy (% GABA EC3)” value [6, 15]?
Answer: 128 ± 5 % GABA EC3

Question: What about the “efficacy (% GABA EC3)” value ([6]; 1 μM, α2β3γ2, ns = not significant) of the same compound?
Answer: 130 ± 7 % GABA EC3

Question: And the “efficacy (% GABA EC3)” value ([6]; 10 μM, α2β3γ2, ns = not significant)?
Answer: 129 ± 10 % GABA EC3

Question: And the EC50 [7]?
Answer: > 354 nM

Question: And the “efficacy (% GABA EC3)” value ([7]; 10 nM)?
Answer: ns

Question: And the “efficacy (% GABA EC3)” value ([7]; 100 nM)?
Answer: 156 ± 11 % GABA EC3

Question: And the “efficacy (% GABA EC3)” value ([7]; 1 μM)?
Answer: 332 ± 23 % GABA EC3

Question: And the “efficacy (% GABA EC3)” value ([7]; 10 μM)?
Answer: 395 ± 8 % GABA EC3

Question: And the EC50 [8]?
Answer: 9 ± 2 nM

Question: What about the “efficacy (% GABA EC3)” value ([8]; 10 nM) of the same compound?
Answer: 168 ± 13 % GABA EC3

Question: What about the “efficacy (% GABA EC3)” value ([8]; 100 nM) of the same compound?
Answer: 205 ± 17 % GABA EC3

Question: And the “efficacy (% GABA EC3)” value ([8]; 1 μM)?
Answer: 216 ± 22 % GABA EC3

Question: What about the “efficacy (% GABA EC3)” value ([8]; 10 μM) of the same compound?
Answer: 228 ± 23 % GABA EC3

Question: And the EC50 [9]?
Answer: > 322 nM

Question: And the “efficacy (% GABA EC3)” value ([9]; 10 nM)?
Answer: ns

Question: What about the “efficacy (% GABA EC3)” value ([9]; 100 nM) of the same compound?
Answer: ns

Question: What about the “efficacy (% GABA EC3)” value ([9]; 1 μM) of the same compound?
Answer: 202 ± 12 % GABA EC3

Question: And the “efficacy (% GABA EC3)” value ([9]; 10 μM)?
Answer: 231 ± 13 % GABA EC3

Question: And the “efficacy (% GABA EC3)” value ([10]; 10 nM)?
Answer: ns

Question: And the “efficacy (% GABA EC3)” value ([10]; 100 nM)?
Answer: 117 ± 3 % GABA EC3

Question: And the “efficacy (% GABA EC3)” value ([10]; 1 μM)?
Answer: 143 ± 7 % GABA EC3

Question: And the “efficacy (% GABA EC3)” value ([10]; 10 μM)?
Answer: 238 ± 15 % GABA EC3

Question: And the “efficacy (% GABA EC3)” value ([11]; 10 nM)?
Answer: ns

Question: And the “efficacy (% GABA EC3)” value ([11]; 100 nM)?
Answer: ns

Question: And the “efficacy (% GABA EC3)” value ([11]; 1 μM)?
Answer: ns

Question: What about the “efficacy (% GABA EC3)” value ([11]; 10 μM) of the same compound?
Answer: ns

Question: And the “activity in the mutated receptors” value [12]?
Answer: inactive

Question: What about the EC50 [13] of the same compound?
Answer: 4 ± 1 nM

Question: What about the “efficacy (% GABA EC3)” value ([13]; 10 nM) of the same compound?
Answer: 126 ± 5 % GABA EC3

Question: What about the “efficacy (% GABA EC3)” value ([13]; 100 nM) of the same compound?
Answer: 134 ± 7 % GABA EC3

Question: And the “efficacy (% GABA EC3)” value ([13]; 1 μM)?
Answer: 136 ± 9 % GABA EC3

Question: And the “efficacy (% GABA EC3)” value ([13]; 10 μM)?
Answer: 138 ± 10 % GABA EC3

Question: COCc1c(C(=O)OC(C)C)ncc2[nH]c3ccc(OCc4ccccc4)cc3c12 [Abecarnil, Isopropyl-6-benzyloxy-4-methoxymethyl-β-carboline-3-carboxylate] was tested. Which “efficacy (% GABA EC3)” value ([1]; 10 nM) did it give?
Answer: ns

Question: What about the “efficacy (% GABA EC3)” value ([1]; 100 nM) of the same compound?
Answer: ns

Question: What about the activity at 1 µM [1, 16] of the same compound?
Answer: 206 ± 16%

Question: And the activity at 10 µM [1, 16]?
Answer: 420 ± 29%

Question: And the “efficacy (% GABA EC3)” value ([2]; 10 nM)?
Answer: ns

Question: And the “efficacy (% GABA EC3)” value ([2]; 100 nM)?
Answer: ns

Question: What about the activity at 1 µM [2, 16] of the same compound?
Answer: 179 ± 25%

Question: And the activity at 10 µM [2, 16]?
Answer: 279 ± 42%

Question: What about the “efficacy (% GABA EC3)” value ([4]; 10 nM) of the same compound?
Answer: ns

Question: What about the “efficacy (% GABA EC3)” value ([4]; 100 nM) of the same compound?
Answer: ns

Question: And the activity at 1 µM [4, 16]?
Answer: 177 ± 11%

Question: What about the activity at 10 µM [4, 16] of the same compound?
Answer: 283 ± 7%

Question: And the EC50 [5]?
Answer: > 2000 nM

Question: And the “efficacy (% GABA EC3)” value ([5]; 10 nM)?
Answer: ns

Question: What about the activity at 0.1 µM [5, 16] of the same compound?
Answer: 216 ± 44%

Question: And the activity at 1 µM [5, 16]?
Answer: 320 ± 71%

Question: What about the activity at 10 µM [5, 16] of the same compound?
Answer: 480 ± 100%

Question: What about the EC50 [6] of the same compound?
Answer: > 1000 nM

Question: And the “efficacy (% GABA EC3)” value [6, 14]?
Answer: ns

Question: And the “efficacy (% GABA EC3)” value [6, 15]?
Answer: ns

Question: And the activity at 1 µM ([6]; read-out: efficacy (% GABA EC3), 1 μM, α2β3γ2, ns = not significant)?
Answer: 261 ± 45%

Question: What about the activity at 10 µM ([6]; read-out: efficacy (% GABA EC3), 10 μM, α2β3γ2, ns = not significant) of the same compound?
Answer: 353 ± 62%

Question: And the “efficacy (% GABA EC3)” value ([7]; 1 μM)?
Answer: ns

Question: What about the activity at 10 µM [7, 16] of the same compound?
Answer: 279 ± 81%

Question: And the “efficacy (% GABA EC3)” value ([8]; 10 nM)?
Answer: ns

Question: What about the “efficacy (% GABA EC3)” value ([8]; 100 nM) of the same compound?
Answer: ns

Question: And the activity at 1 µM [8, 16]?
Answer: 169 ± 23%

Question: What about the activity at 10 µM [8, 16] of the same compound?
Answer: 232 ± 38%

Question: What about the “efficacy (% GABA EC3)” value ([9]; 1 μM) of the same compound?
Answer: ns

Question: And the activity at 10 µM [9, 16]?
Answer: 218 ± 13%

Question: What about the “efficacy (% GABA EC3)” value ([10]; 10 nM) of the same compound?
Answer: ns

Question: What about the “efficacy (% GABA EC3)” value ([10]; 100 nM) of the same compound?
Answer: ns

Question: And the activity at 1 µM [10, 16]?
Answer: 192 ± 4%

Question: And the activity at 10 µM [10, 16]?
Answer: 384 ± 24%

Question: And the “activity in the mutated receptors” value [12]?
Answer: inactive

Question: And the EC50 [13]?
Answer: > 9000 nM

Question: What about the activity at 0.01 µM [13, 16] of the same compound?
Answer: 192 ± 31%

Question: What about the activity at 0.1 µM [13, 16] of the same compound?
Answer: 330 ± 58%

Question: What about the activity at 1 µM [13, 16] of the same compound?
Answer: 407 ± 83%

Question: What about the activity at 10 µM [13, 16] of the same compound?
Answer: 640 ± 157%
